Experimental data: patent US6008372A, “Substituted dinaphthylmethyl and diheteroarylmethylacetyl histidine inhibitors of protein farnesyltransferase” (Warner-Lambert Company, priority 1998, dated 1999)
Read-outs that look alike come from different tables or passages of the source.

Biological target: T1, rat brain farnesyl protein transferase (Rattus norvegicus, UniProt Q02293+Q04631)
T1 construct: 40-fold purified rat brain farnesyl protein transferase; from tissue; host or cells: rat brain
Experiment: Protein:farnesyltransferase (PFT/FPT) inhibitory activity assay
Assay type: biochemical

[1] = Hepes (without 5 mM phosphate), read-out: Farnesyl Protein Transferase Inhibition, Hepes, IC50
[2] = Hepes/5 mM PO4^-3, pH 7.4, read-out: Farnesyl Protein Transferase Inhibition, Hepes/5 mM PO4^-3, IC50

SMILES | IC50 [1] [µM] | IC50 [2] [µM]
CCC(C)OC(=O)[C@H](Cc1c[nH]cn1)NC(=O)C(Cc1cccc2ccccc12)Cc1cccc2ccccc12 (mixture of isomers) [Example 14, (S)-3-(1H-Imidazol-4-yl)-2-(3-naphthalen-1-yl-2-naphthalen-1-ylmethyl-propionylamino)-propionic acid, (±)-sec-butyl ester] | 0.82 | 0.54
CC(C#N)OC(=O)[C@H](Cc1c[nH]cn1)NC(=O)C(Cc1cccc2ccccc12)Cc1cccc2ccccc12 (mixture of isomers) [Example 61, (S)-3-(1H-Imidazol-4-yl)-2-(3-naphthalen-1-yl-2-naphthalen-1-ylmethyl-propionylamino)-propionic acid, (±)-1-cyano-ethyl ester] | 0.64 | 0.61
COC(=O)[C@@H](Cc1c[nH]cn1)NC(=O)C(Cc1cccc2ccccc12)Cc1cccc2ccccc12 [Example 2, (R)-3-(1H-Imidazol-4-yl)-2-(3-naphthalen-1-yl-2-naphthalen-1-ylmethyl-propionylamino)-propionic acid, methyl ester] | 12 | 10
O=C(N[C@@H](Cc1c[nH]cn1)C(=O)O)C(Cc1cccc2ccccc12)Cc1cccc2ccccc12 [Example 3, (S)-3-(1H-Imidazol-4-yl)-2-(3-naphthalen-1-yl-2-naphthalen-1-ylmethyl-propionylamino)-propionic acid] | 1 | 2.3
O=C(N[C@H](Cc1c[nH]cn1)C(=O)O)C(Cc1cccc2ccccc12)Cc1cccc2ccccc12 [Example 4, (R)-3-(1H-Imidazol-4-yl)-2-(3-naphthalen-1-yl-2-naphthalen-1-ylmethyl-propionylamino)-propionic acid] | 6.1 | 19.5
CCCCOC(=O)[C@H](Cc1c[nH]cn1)NC(=O)C(Cc1cccc2ccccc12)Cc1cccc2ccccc12 [Example 9, (S)-3-(1H-Imidazol-4-yl)-2-(3-naphthalen-1-yl-2-naphthalen-1-ylmethyl-propionylamino)-propionic acid, butyl ester] | 1.3 | 1.1
O=C(N[C@@H](Cc1c[nH]cn1)C(=O)OCc1ccccc1)C(Cc1cccc2ccccc12)Cc1cccc2ccccc12 [Example 10, (S)-3-(1H-Imidazol-4-yl)-2-(3-naphthalen-1-yl-2-naphthalen-1-ylmethyl-propionylamino)-propionic acid, benzyl ester] | 4.2 | 2.9
O=C(N[C@@H](Cc1c[nH]cn1)C(=O)OC1CCCCC1)C(Cc1cccc2ccccc12)Cc1cccc2ccccc12 [Example 11, (S)-3-(1H-Imidazol-4-yl)-2-(3-naphthalen-1-yl-2-naphthalen-1-ylmethyl-propionylamino)-propionic acid, cyclohexyl ester] | 20 | 14
O=C(N[C@@H](Cc1c[nH]cn1)C(=O)OCC1CC1)C(Cc1cccc2ccccc12)Cc1cccc2ccccc12 [Example 12, (S)-3-(1H-Imidazol-4-yl)-2-(3-naphthalen-1-yl-2-naphthalen-1-ylmethyl-propionylamino)-propionic acid, cyclopropylmethyl ester] | 0.4 | 0.25
CCCCc1nc(COC(=O)[C@H](Cc2c[nH]cn2)NC(=O)C(Cc2cccc3ccccc23)Cc2cccc3ccccc23)c[nH]1 [Example 13, (S)-3-(1H-Imidazol-4-yl)-2-(3-naphthalen-1-yl-2-naphthalen-1-ylmethyl-propionylamino)-propionic acid, 2-butyl-1H-imidazol-4-ylmethyl ester] | 2.1 | 1.7
C#CCOC(=O)[C@H](Cc1c[nH]cn1)NC(=O)C(Cc1cccc2ccccc12)Cc1cccc2ccccc12 [Example 16, (S)-3-(1H-Imidazol-4-yl)-2-(3-naphthalen-1-yl-2-naphthalen-1-ylmethyl-propionylamino)-propionic acid, prop-2-ynyl ester] | 0.5 | 0.59
O=C(N[C@@H](Cc1c[nH]cn1)C(=O)OCCOCc1ccccc1)C(Cc1cccc2ccccc12)Cc1cccc2ccccc12 [Example 18, (S)-3-(1H-Imidazol-4-yl)-2-(3-naphthalen-1-yl-2-naphthalen-1-ylmethyl-propionylamino)-propionic acid, 2-benzyloxyethyl ester] | 0.57 | 0.54
O=C(N[C@@H](Cc1c[nH]cn1)C(=O)OCCc1cccs1)C(Cc1cccc2ccccc12)Cc1cccc2ccccc12 [Example 19, (S)-3-(1H-Imidazol-4-yl)-2-(3-naphthalen-1-yl-2-naphthalen-1-ylmethyl-propionylamino)-propionic acid, 2-thiophen-2-yl-ethyl ester] | 1.1 | 1.1
O=C(N[C@@H](Cc1c[nH]cn1)C(=O)OCc1ccsc1)C(Cc1cccc2ccccc12)Cc1cccc2ccccc12 [Example 20, (S)-3-(1H-Imidazol-4-yl)-2-(3-naphthalen-1-yl-2-naphthalen-1-ylmethyl-propionylamino)-propionic acid, thiophen-3-ylmethyl ester] | 3.5 | 2.4
CCN(CC)CCOC(=O)[C@H](Cc1c[nH]cn1)NC(=O)C(Cc1cccc2ccccc12)Cc1cccc2ccccc12 [Example 21, (S)-3-(1H-Imidazol-4-yl)-2-(3-naphthalen-1-yl-2-naphthalen-1-ylmethyl-propionylamino)-propionic acid, 2-diethylamino-ethyl ester] | 21 | 9
O=C(N[C@@H](Cc1c[nH]cn1)C(=O)OCCN1CCOCC1)C(Cc1cccc2ccccc12)Cc1cccc2ccccc12 [Example 22, (S)-3-(1H-Imidazol-4-yl)-2-(3-naphthalen-1-yl-2-naphthalen-1-ylmethyl-propionylamino)-propionic acid, 2-morpholin-4-yl-ethyl ester] | 5.8 | 4.3
NC(=O)[C@H](Cc1c[nH]cn1)NC(=O)C(Cc1cccc2ccccc12)Cc1cccc2ccccc12 [Example 24, (S)-N-[1-Carbamoyl-2-(1H-imidazol-4-yl)-ethyl]-3-naphthalen-1-yl-2-naphthalen-1-ylmethyl-propionamide] | 5.3 | 3.8
O=C(N[C@@H](Cc1c[nH]cn1)C(=O)NCCn1ccnc1)C(Cc1cccc2ccccc12)Cc1cccc2ccccc12 [Example 25, (S)-N-[2-(1H-Imidazol-4-yl)-1-(2-imidazol-1-yl-ethylcarbamoyl)-ethyl]-3-naphthalen-1-yl-2-naphthalen-1-ylmethyl-propionamide] | 1.9 | 1.5
CCSCCNC(=O)[C@H](Cc1c[nH]cn1)NC(=O)C(Cc1cccc2ccccc12)Cc1cccc2ccccc12 [Example 26, (S)-N-[1-(2-Ethylsulfanyl-ethylcarbamoyl)-2-(1H-imidazol-4-yl)-ethyl]-3-naphthalen-1-yl-2-naphthalen-1-ylmethyl-propionamide] | 12 | 8.7
O=C(N[C@@H](Cc1c[nH]cn1)C(=O)NCCCn1ccnc1)C(Cc1cccc2ccccc12)Cc1cccc2ccccc12 [Example 28] | 8.1 | 4.2
O=C(N[C@@H](Cc1c[nH]cn1)C(=O)NCCO)C(Cc1cccc2ccccc12)Cc1cccc2ccccc12 [Example 29, (S)-N-[1-(2-Hydroxy-ethylcarbamoyl)-2-(1H-imidazol-4-yl)-ethyl]-3-naphthalen-1-yl-2-naphthalen-1-ylmethyl-propionamide] | 3.2 | 3.7
CC(C)NC(=O)[C@H](Cc1c[nH]cn1)NC(=O)C(Cc1cccc2ccccc12)Cc1cccc2ccccc12 [Example 30, (S)-N-[2-(1H-Imidazol-4-yl)-1-isopropylcarbamoyl-ethyl]-3-naphthalen-1-yl-2-naphthalen-1-ylmethyl-propionamide] | 4.6 | 3.5
O=C(N[C@@H](Cc1c[nH]cn1)C(=O)NCCN1CCOCC1)C(Cc1cccc2ccccc12)Cc1cccc2ccccc12 [Example 31, (S)-N-[2-(1H-Imidazol-4-yl)-1-(2-morpholin-4-yl-ethylcarbamoyl)-ethyl]-3-naphthalen-1-yl-2-naphthalen-1-ylmethyl-propionamide] | 26 | 15
CCN(CC)CCNC(=O)[C@H](Cc1c[nH]cn1)NC(=O)C(Cc1cccc2ccccc12)Cc1cccc2ccccc12 [Example 32] | 19 | 14
CCNC(=O)[C@H](Cc1c[nH]cn1)NC(=O)C(Cc1cccc2ccccc12)Cc1cccc2ccccc12 [Example 34, (S)-N-[1-Ethylcarbamoyl-2-(1H-imidazol-4-yl)-ethyl]-3-naphthalen-1-yl-2-naphthalen-1-ylmethyl-propionamide] | 2.9 | 2
NS(=O)(=O)c1ccc(CCNC(=O)[C@H](Cc2c[nH]cn2)NC(=O)C(Cc2cccc3ccccc23)Cc2cccc3ccccc23)cc1 [Example 35] | 15 | 14
O=C(N[C@@H](Cc1c[nH]cn1)C(=O)NCCOCc1ccccc1)C(Cc1cccc2c1CCCC2)Cc1cccc2c1CCCC2 [Example 38, (S)-N-[1-(2-Benzyloxy-ethylcarbamoyl)-2-(1H-imidazol-4-yl)-ethyl]-3-(5,6,7,8-tetrahydro-naphthalen-1-yl)-2-(5,6,7,8-tetrahydro-naphthalen-1-ylmethyl)-propionamide] | 0.78 | 0.85
COC(=O)[C@H](Cc1c[nH]cn1)NC(=O)C(Cc1csc2ccccc12)Cc1csc2ccccc12 [Example 39, (S)-2-(3-Benzo[b]thiophen-3-yl-2-benzo[b]thiophen-3-ylmethyl-propionylamino)-3-(1H-imidazol-4-yl)-propionic acid, methyl ester] | 1.2 | 0.97
CC(=O)NCCSC(=O)[C@H](Cc1c[nH]cn1)NC(=O)C(Cc1cccc2ccccc12)Cc1cccc2ccccc12 [Example 40, (S)-3-(1H-Imidazol-4-yl)-2-(3-naphthalen-1-yl-2-naphthalen-1-ylmethyl-propionylamino)-thiopropionic acid, S-(2-acetylamino-ethyl)ester] | 2.6 | 3.2
